# According to patent US20100292335A1, “USE OF ORGANIC COMPOUNDS” (priority 2007, published 2010):
# Test system: bradykinin peptides BK-(1-7), BK-(1-9)
# Assay: Bradykinin peptide levels in blood and tissues of non-diabetic and streptozotocin-diabetic (mRen-2)27 rats after 16 weeks aliskiren
# Assay type: in vivo, transgenic (mRen-2)27 rats
# Conditions: for Effect of aliskiren on BK-(1-7) level / Effect of aliskiren on BK-(1-9) level / Effect of aliskiren on BK-(1-7)/(1-9) ratio: 10 mg/kg/day 16 weeks, 10 mg/kg/day; for Heart BK-(1-7), Mean ± SEM / Heart BK-(1-7)/(1-9) ratio, Mean ± SEM / Heart BK-(1-9), Mean ± SEM: aliskiren 10 mg/kg/day 16 weeks
# Protocol: As an example, diabetes is induced in 6 week old female heterozygous transgenic (mRen-2)27 rats by administration of 55 mg/kg streptozotocin diluted in […], pH 4.5 by tail vein injection. Non-diabetic rats are injected with citrate buffer alone [Campbell D J, Kelly D J, Wilkinson-Berka J L, Cooper M E, Skinner S L. Increased bradykinin and “normal” angiotensin peptide levels in diabetic Sprague-Dawley and transgenic (mRen-2)27 rats. Kidney Int 1999; 56:211-221.1. Diabetic and non-diabetic rats are randomized to receive either no drug or aliskiren (10 mg/kg/day by osmotic minipump) from 6-7 weeks of age for a duration of 16 weeks. The minipumps are changed every 2 weeks and the amount of aliskiren in the minipumps is adjusted according to the body weight of the rats. Diabetic rats are injected subcutaneously with 2-4 units insulin (Ultratard, Novo Nordisk, Denmark).every second day (3 times a week). If rats have continuously elevated blood glucose levels (>33.3 mmol/L) over a couple of weeks, they are injected with 3 units every day. When glucose levels decrease to 33.3 mmol/L they are administered 2-4 units insulin every second day. After 16 weeks drug treatment, rats are anesthetized with ketamine (75 mg/kg) and xylazine (10 mg/kg) in combination, and blood and tissue is collected for peptide assay. Peptides are measured as previously described [Lawrence A C, Evin G, Kladis A, Campbell D J. An alternative strategy for the radioimmunoassay of angiotensin peptides using amino-terminal-directed antisera: measurement of eight angiotensin peptides in human plasma. J Hypertens 1990; 8:715-724; Campbell D J, Lawrence A C, Towrie A, Kladis A, Valentijn A J. Differential regulation of angiotensin peptide levels in plasma and kidney of the rat. Hypertension 1991; 18:763-773; Campbell D J, Kladis A, Duncan A-M. Nephrectomy, converting enzyme inhibition and angiotensin peptides. Hypertension 1993; 22:513-522; Campbell D J, Kladis A, Duncan A-M. Bradykinin peptides in kidney, blood, and other tissues of the rat. Hypertension 1993; 21:155-165; Campbell D J, Kladis A, Duncan A-M. Effects of converting enzyme inhibitors on angiotensin and bradykinin peptides. Hypertension 1994; 23:439-449; Campbell D J, Rong P, Kladis A, Rees B, Skinner S L. Angiotensin and bradykinin peptides in the TGR(mRen-2)27 rat. Hypertension 1995; 25:1014-1020]. Only the left kidney is collected for peptide assay. The heart refers to the cardiac ventricles (both right and left ventricle). The Ang I levels in heart are below the limit of detection of the assay.
# There are 4 groups of rats: • 1. Non-diabetic control. • 2. Non-diabetic administered aliskiren 10 mg/kg/day. • 3. Diabetic control. • 4. Diabetic administered aliskiren 10 mg/kg/day.
# [1] = Heart, control rats, listed as Aliskiren
# [2] = Heart, diabetic rats, listed as Aliskiren
structure (smiles),measurement,setting,value
"COCCCOc1cc(C[C@@H](C[C@H](N)[C@@H](O)C[C@H](C(=O)NCC(C)(C)C(N)=O)C(C)C)C(C)C)ccc1OC [aliskiren, 2(S),4(S),5(S),7(S)-N-(3-amino-2,2-dimethyl-3-oxopropyl)-2,7-di(1-methylethyl)-4-hydroxy-5-amino-8-[4-methoxy-3-(3-methoxy-propoxy)phenyl]-octanamide]",Effect of aliskiren on BK-(1-7) level,"Blood, control rats",does not affect
same,Effect of aliskiren on BK-(1-9) level,"Blood, control rats",does not affect
same,Effect of aliskiren on BK-(1-7) level,"Blood, diabetic rats",does not affect
same,Effect of aliskiren on BK-(1-7)/(1-9) ratio,"Blood, diabetic rats",increase
same,Effect of aliskiren on BK-(1-9) level,"Blood, diabetic rats",does not affect
same,Effect of aliskiren on BK-(1-7) level,"Brain, control rats",does not affect
same,Effect of aliskiren on BK-(1-9) level,"Brain, control rats",does not affect
same,Effect of aliskiren on BK-(1-7) level,"Brain, diabetic rats",does not affect
same,Effect of aliskiren on BK-(1-9) level,"Brain, diabetic rats",does not affect
same,Effect of aliskiren on BK-(1-7) level,"Heart, control rats",increased
same,Effect of aliskiren on BK-(1-7)/(1-9) ratio,"Heart, control rats",did not affect
same,Effect of aliskiren on BK-(1-9) level,"Heart, control rats",increased
same,Effect of aliskiren on BK-(1-7) level,[1],increase
same,Effect of aliskiren on BK-(1-7)/(1-9) ratio,[1],no change
same,Effect of aliskiren on BK-(1-9) level,[1],increase
same,"Heart BK-(1-7), Mean ± SEM","Heart, control rats",19.2 ± 2.5 fmol/g
same,"Heart BK-(1-7)/(1-9) ratio, Mean ± SEM","Heart, control rats",1.88 ± 0.18 mol/mol
same,"Heart BK-(1-9), Mean ± SEM","Heart, control rats",10.6 ± 1.2 fmol/g
same,Effect of aliskiren on BK-(1-7) level,"Heart, diabetic rats",increased
same,Effect of aliskiren on BK-(1-7)/(1-9) ratio,"Heart, diabetic rats",did not affect
same,Effect of aliskiren on BK-(1-9) level,"Heart, diabetic rats",increased
same,Effect of aliskiren on BK-(1-7) level,[2],increase
same,Effect of aliskiren on BK-(1-7)/(1-9) ratio,[2],no change
same,Effect of aliskiren on BK-(1-9) level,[2],increase
same,"Heart BK-(1-7), Mean ± SEM","Heart, diabetic rats",13.9 ± 1.5 fmol/g
same,"Heart BK-(1-7)/(1-9) ratio, Mean ± SEM","Heart, diabetic rats",2.47 ± 0.37 mol/mol
same,"Heart BK-(1-9), Mean ± SEM","Heart, diabetic rats",6.4 ± 0.7 fmol/g
same,Effect of aliskiren on BK-(1-7) level,"Kidney, control rats",does not affect
same,Effect of aliskiren on BK-(1-9) level,"Kidney, control rats",does not affect
same,Effect of aliskiren on BK-(1-7) level,"Kidney, diabetic rats",does not affect
same,Effect of aliskiren on BK-(1-9) level,"Kidney, diabetic rats",does not affect
same,Effect of aliskiren on BK-(1-7) level,"Lung, control rats",does not affect
same,Effect of aliskiren on BK-(1-9) level,"Lung, control rats",does not affect
same,Effect of aliskiren on BK-(1-7) level,"Lung, diabetic rats",does not affect
same,Effect of aliskiren on BK-(1-9) level,"Lung, diabetic rats",does not affect
